The text below walks through data of US8969325B2, “TRPV1 antagonists” (AbbVie Inc., priority 2011, dated 2015).

Test [1] concerns the target T1, human TRPV1 (Homo sapiens (Human), UniProt Q8NER1). Nature of the test: Acid Activation Assay (pH 5.0, intracellular Ca2+, FLIPR). It counts as cell-based. The following applies: percentage of the maximal pH 5.0-induced response remaining; recombinant HEK293 hTRPV1 cells; maximum concentration tested 37.5 μM. Summed up: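 HEK293 cells stably expressing recombinant hTRPV1, loaded with Calcium-4 dye 90-120 min at 25° C. Compounds added over a 12-point half-log range (top 37.5 μM), then pH 5.0 DPBS/MES challenge after 3 min; FLIPR peak fluorescence over baseline given as % of maximal pH 5.0 response.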

Test [2] addresses T1, human TRPV1. Nature of the test: Capsaicin Activation Assay (intracellular Ca2+, FLIPR). To be noted: recombinant HEK293 cells expressing hTRPV1, 50 nM capsaicin. The test is classed as cell-based. The essentials: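 Stably transfected HEK293 cells expressing human TRPV1 cDNA, plated the day before in poly-D-lysine plates. Compounds serially diluted from 10 mM DMSO stocks; intracellular Ca2+ fluorescence read on FLIPR at 1 to 5 second intervals.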

T1 sequence (Q8NER1 whole entry): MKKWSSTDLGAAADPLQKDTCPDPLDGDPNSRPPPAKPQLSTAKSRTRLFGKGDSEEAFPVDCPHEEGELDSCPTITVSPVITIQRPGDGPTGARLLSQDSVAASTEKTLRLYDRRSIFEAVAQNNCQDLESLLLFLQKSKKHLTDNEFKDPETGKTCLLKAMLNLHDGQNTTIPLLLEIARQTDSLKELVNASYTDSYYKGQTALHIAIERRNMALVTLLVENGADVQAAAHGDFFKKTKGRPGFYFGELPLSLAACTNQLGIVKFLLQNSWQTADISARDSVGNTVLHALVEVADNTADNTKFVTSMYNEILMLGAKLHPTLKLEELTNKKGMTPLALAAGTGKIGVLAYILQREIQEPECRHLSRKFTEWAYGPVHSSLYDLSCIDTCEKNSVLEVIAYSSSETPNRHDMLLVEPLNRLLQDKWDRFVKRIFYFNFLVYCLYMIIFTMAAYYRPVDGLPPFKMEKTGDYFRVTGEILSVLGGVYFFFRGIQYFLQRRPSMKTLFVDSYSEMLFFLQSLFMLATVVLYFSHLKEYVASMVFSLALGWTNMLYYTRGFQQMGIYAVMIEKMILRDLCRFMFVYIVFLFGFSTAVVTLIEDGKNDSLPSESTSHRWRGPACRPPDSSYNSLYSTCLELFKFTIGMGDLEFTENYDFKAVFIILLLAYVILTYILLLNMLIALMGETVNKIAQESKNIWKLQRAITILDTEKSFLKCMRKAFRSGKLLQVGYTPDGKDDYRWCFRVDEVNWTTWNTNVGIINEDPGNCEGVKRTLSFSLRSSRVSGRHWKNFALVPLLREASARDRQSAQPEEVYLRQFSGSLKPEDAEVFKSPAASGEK

For the molecule `CCCC1(CCC)C[C@@H](NC(=O)Nc2ccc3c(c2)N(C)C(=O)CC3)c2cc(F)ccc2O1` [Example 266, 1-[(4R)-6-fluoro-2,2-dipropyl-3,4-dihydro-2H-chromen-4-yl]-3-(1-methyl-2-oxo-1,2,3,4-tetrahydroquinolin-7-yl)urea], the “human TRPV1 H^+ (max % remain)” value in test [1] is on record as 54%. For the same molecule, the concentration for half-maximal inhibition (IC50) in test [2] turned out to be 65 nM.

With `CN1C(=O)CCc2ccc(NC(=O)N[C@@H]3CC(CF)(CF)Oc4ccc(F)cc43)cc21` [Example 267, 1-[(4R)-6-fluoro-2,2-bis(fluoromethyl)-3,4-dihydro-2H-chromen-4-yl]-3-(1-methyl-2-oxo-1,2,3,4-tetrahydroquinolin-7-yl)urea], in test [1], the “human TRPV1 H^+ (max % remain)” value is given as 63%. The IC50 in test [2] worked out at 380 nM.

Turning to `CN1C(=O)CCc2ccc(NC(=O)N[C@@H]3CC(CF)(CF)Oc4c(F)cc(F)cc43)cc21` [Example 268, 1-[(4R)-6,8-difluoro-2,2-bis(fluoromethyl)-3,4-dihydro-2H-chromen-4-yl]-3-(1-methyl-2-oxo-1,2,3,4-tetrahydroquinolin-7-yl)urea], the “human TRPV1 H^+ (max % remain)” value in test [1] came to 66%. Besides, the 50% inhibitory concentration (IC50) in test [2] worked out at 1200 nM.

Regarding `CN1C(=O)CCc2ccc(NC(=O)N[C@@H]3CC4(CCC4)Oc4ccc(F)cc43)cc21` [Example 269, 1-[(4R)-6-fluoro-3,4-dihydrospiro[chromene-2,1′-cyclobutan]-4-yl]-3-(1-methyl-2-oxo-1,2,3,4-tetrahydroquinolin-7-yl)urea], the “human TRPV1 H^+ (max % remain)” value in test [1] was found to be 70%. Moreover, the IC50 in test [2] came to 540 nM.

For the molecule `CCC1(CC)C[C@@H](NC(=O)Nc2ccc3c(c2)N(C)C(=O)CC3)c2cc(F)ccc2O1` [Example 270, 1-[(4R)-2,2-diethyl-6-fluoro-3,4-dihydro-2H-chromen-4-yl]-3-(1-methyl-2-oxo-1,2,3,4-tetrahydroquinolin-7-yl)urea], in test [1], the “human TRPV1 H^+ (max % remain)” value came to 86%. Besides, the IC50 in test [2] was determined as 220 nM.

In the case of `CCCC1(CCC)C[C@@H](NC(=O)Nc2ccc3c(c2)N(C)C(=O)CC3)c2cccc(F)c2O1` [Example 271, 1-[(4R)-8-fluoro-2,2-dipropyl-3,4-dihydro-2H-chromen-4-yl]-3-(1-methyl-2-oxo-1,2,3,4-tetrahydroquinolin-7-yl)urea], in test [1], the “human TRPV1 H^+ (max % remain)” value is on record as 69%. Also, the IC50 in test [2] came out at 170 nM.

Consider `CCC1(CC)C[C@@H](NC(=O)Nc2ccc3c(c2)N(C)C(=O)CC3)c2ccc(OC(F)(F)F)cc2O1` [Example 272, 1-[(4R)-2,2-diethyl-7-(trifluoromethoxy)-3,4-dihydro-2H-chromen-4-yl]-3-(1-methyl-2-oxo-1,2,3,4-tetrahydroquinolin-7-yl)urea], for which, in test [1], the “human TRPV1 H^+ (max % remain)” value came out at 101%. Further, in test [2], the IC50 was found to be 180 nM.

As for `CN1C(=O)CCc2ccc(NC(=O)N[C@@H]3CC(CF)(CF)Oc4c3ccc(Cl)c4F)cc21` [Example 273, 1-[(4R)-7-chloro-8-fluoro-2,2-bis(fluoromethyl)-3,4-dihydro-2H-chromen-4-yl]-3-(1-methyl-2-oxo-1,2,3,4-tetrahydroquinolin-7-yl)urea], the “human TRPV1 H^+ (max % remain)” value in test [1] turned out to be 55%. Further, the half-maximal inhibitory concentration (IC50) in test [2] was determined as 210 nM.

As to `CN1C(=O)CCc2ccc(NC(=O)N[C@@H]3CC(C)(C)Oc4ccc(F)cc43)cc21` [Example 274, 1-[(4R)-6-fluoro-2,2-dimethyl-3,4-dihydro-2H-chromen-4-yl]-3-(1-methyl-2-oxo-1,2,3,4-tetrahydroquinolin-7-yl)urea], in test [1], the “human TRPV1 H^+ (max % remain)” value was 81%. Further, the IC50 in test [2] amounted to 53 nM.

Regarding `CN1C(=O)CCc2ccc(NC(=O)N[C@@H]3CC(C)(C)Oc4c3ccc(F)c4Cl)cc21` [Example 275, 1-[(4R)-8-chloro-7-fluoro-2,2-dimethyl-3,4-dihydro-2H-chromen-4-yl]-3-(1-methyl-2-oxo-1,2,3,4-tetrahydroquinolin-7-yl)urea], the “human TRPV1 H^+ (max % remain)” value in test [1] was determined as 83%. Moreover, the half-inhibitory concentration (IC50) in test [2] was determined as 920 nM.

What is called IC50 is the point on the concentration scale where inhibition reaches its midpoint.
